Bounds are passed on as bounds.

The text below walks through data of patent US20240327454A1, “DETERGENT AND METHOD FOR PURIFYING A BIOTHERAPEUTIC” (MEDIMMUNE, LLC, priority 2020, published 2024).

The test system of one data set is AAV6.2. Kind of data set: AAV purification on Capto AVB after cell lysis, eluate titer and infectivity. Conditions: for CaptoAVB Elu Infectivity / CaptoAVB Elu Titer: detergent cell lysis, cell paste lot A8489 (Brij-L9), A8102 (Triton X100). The method, then: (§1) An AAV6.2 cell paste slurry was generated and stored at −80° C. Brij L9 (Laureth-9) was sourced from Croda International Plc. (East Yorkshire, United Kingdom). Triton X-100 was sourced from Spectrum Chemical (New Brunswick, NJ). Capto AVB resin was sourced from GE Healthcare (Piscataway, NJ). COSP filters were obtained from EMD Millipore (Burlington, MA). Sartopore 2 XLG, 0.8/0.2 um filters were obtained from Sartorius Stedim Biotech GmbH (Gottingen, Germany). All the buffer salts were sourced from Avantor Performance Chemicals (Center Valley, Pennsylvania).
(§2) For detergent lysis, the AAV6.2 cell paste was diluted to a 10% slurry with 20 mM Tris, 200 mM NaCl, 2 mM MgCl2, pH 7.5. 10% (w/w) detergent stock solution was spiked into cell slurry to bring final detergent concentration to 0.5% (v/w). Benzonase was spiked to 10 U/ml into cell slurry mixture and mixed slowly at RT for 1 hour.
For freeze-and-thaw lysis, the cell paste slurry was put through 2 freeze-thaw cycles at −80° C. and RT. AAV lysate was diluted to 10% slurry with 20 mM Tris, 200 mM NaCl, 2 mM MgCl2, pH 7.5. Benzonase was spiked to 10 U/ml into cell slurry mixture and mixed slowly at RT for 1 hour.
(§3) AAV Purification was performed using a Capto AVB affinity column. Purification was controlled by Unicorn 7.0 software on an AKTA AVANT purchased from GE Healthcare (Piscataway, NJ). COSP POD filter was flushed with 20 mM Tris, 500 mM NaCl, 2 mM MgCl2, pH 7.5. 10% AAV6.2 cell lysate was clarified with COSP followed by Sartopore 2 XLG, 0.8/0.2 um filter. Capto AVB column was equilibrated with 20 mM Tris, 200 mM NaCl, 2 mM MgCl2, pH 7.5 for 3 column volumes (CV). Clarified cell lysate was loaded with residence time of 6 min. Column was re-equilibrated with 20 mM Tris, 200 mM NaCl, 2 mM MgCl2, pH 7.5 for 4 CV. Product was eluted from column with 50 mM citric acid, 500 mM NaCl, 2 mM MgCl2, pH 2.5. Eluate pH was adjusted to pH 8.0 with 1 M Tris/HCl, pH 8.0 AAV Titer was determined by centrifuging 10% lysate at 13,000 rpm for 10 min and collecting the supernatant. AAV titer was determined with in-house qPCR method.

Data set [1] deals with XMuLV. The experiment in a line: Viral inactivation by Laureth-9 in XMuLV-spiked BisAb or BisFusion conditioned media (Example 2). The class given is cell-based, murine xenotropic leukemia virus-related virus. The method, then: (§4) Harvest media was spiked with murine xenotropic leukemia virus-related virus (XMuLV) stock prior to the detergent spike.
(§5) Conditioned cell harvest media containing a monovalent bispecific human IgG1 monoclonal antibody (BisAb) was spiked with 8.5 logs of XMuLV. A sample of the virus spiked harvest media was collected and used as a hold control to determine the rate of viral inactivation without detergent.
(§6) A 10% (w/w) stock solution was made by dissolving detergent into 50 mM Tris pH 7.4. A cell harvest sample of BisAb media spiked with XMuLV was spiked to a 1% detergent concentration using an appropriate amount of the 10% stock solution. The hold control and reaction samples were incubated at room temperature. Samples were collected at 1, 10, 60, and 120 minutes and diluted 1:50 in McCoy medium to stop the viral inactivation reaction. Diluted samples and hold control were assayed for viral concentration using a plaque assay.
A study was performed essentially as described in Example 1 to examine the viral inactivation using detergent concentrations of 1% Brij L9 (Laureth-9, sourced from Croda International Plc., East Yorkshire, United Kingdom) and 1% Polidodecanol 600 (Laureth-9, sourced from Schärer & Schläpfer AG, Rothrist, Switzerland) for CHO-derived conditioned media for BisAb and 1% or 0.1% Brij L9 for CHO-derived conditioned media for a bispecific fusion protein (BisFusion).

Data set [2] relates to XMuLV. Kind of data set: Viral inactivation by 1% detergent in XMuLV-spiked BisAb cell harvest media, plaque assay (Example 1). The class given is cell-based, murine xenotropic leukemia virus-related virus. Set-up: Virus concentration: unit not given here. Conditions: for Log10 reduction value / Virus concentration: BisAb harvest media; for Virus concentration: room temperature; for viral inactivation kinetics: in words, compared to Laureth-9.
From the text: The viral inactivation of four detergents was examined using a CHO-derived cell harvest material for a monovalent bispecific human IgG1 monoclonal antibody. Brij L9 (Laureth-9), Myrj S25, and Brij S20 were sourced from Croda International Plc. (East Yorkshire, United Kingdom). Polidocanol 600 (Laureth-9) was sourced from Schärer & Schläpfer AG (Rothrist, Switzerland).
as §4, §5, §6

For another data set, the system named is AAV6.2 cell paste. The experiment in a line: Detergent lysis of AAV6.2 cell paste slurry, lysate AAV titer by qPCR. The class given is cell-based. Conditions: for Lysate AAV6 Titer: 0.5% detergent, AAV6 cell paste lot A8498, 1 hour at RT. How it is done:
as §1, §2, §3
Background: Real-time PCR tracks product formation cycle by cycle.

A further data set deals with aquatic organisms. The settings on record: cited from earlier work.
Another data set deals with enveloped virus. The settings on record: cited from earlier work.
Where [3] appears, read: 0 min, 0.1% detergent, BisFusion.
The mark [4] stands for this setting: 10 min, 0.1% detergent, BisFusion.
The mark [5] stands for this setting: 10 min, 1% detergent, BisFusion.
[6] abbreviates: 60 min, 0.1% detergent, BisFusion.
The mark [7] stands for this setting: 60 min, 1% detergent, BisFusion.
[8] abbreviates: <1 min, 0.1% detergent, BisFusion.
Setting [9] is: <1 min, 1% detergent, BisFusion.

For the compound `CCCCCCCCCCCCOCCOCCOCCOCCOCCOCCOCCOCCOCCO` [Brij L9, 3,6,9,12,15,18,21,24,27-nonaoxanonatriacontan-1-ol], the “CaptoAVB Elu Infectivity” value in the data set on AAV6.2 worked out at 10.5 Log10 TCID50/mL. For the same compound, the “CaptoAVB Elu Titer” value with AAV6.2 stood at 12.2 Log10 vg/mL. For the same compound, in the data set with AAV6.2 (in words), the “impact on AAV infectivity” value is “does not show any negative impact”. The Log10 reduction value with XMuLV [1] (setting [3]) was 0 Log10; in the data set with XMuLV [1] (0 min, 1% detergent, BisAb) it was 0 Log10; with XMuLV [1] (0 min, 1% detergent, BisFusion), 0 Log10; with XMuLV [1] (setting [4]) it was greater than 3.88 Log10; in the data set with XMuLV [1] (10 min, 1% detergent, BisAb) it was greater than 4.07 Log10; with XMuLV [1] (setting [5]), greater than 3.84 Log10. The Log10 reduction value in the data set on XMuLV [1] (setting [6]) is listed as greater than 3.88 Log10; with XMuLV [1] (60 min, 1% detergent, BisAb), greater than 4.07 Log10; in the data set with XMuLV [1] (setting [7]), greater than 3.84 Log10; with XMuLV [1] (setting [8]), greater than 3.88 Log10; with XMuLV [1] (<1 min, 1% detergent, BisAb) it was greater than 4.03 Log10; in the data set with XMuLV [1] (setting [9]), greater than 3.84 Log10. Besides, the Log10 reduction value was 0 Log10 in the data set on XMuLV [2] (0 min), greater than 4.61 Log10 in the data set with XMuLV [2] (10 min), greater than 4.61 Log10 with XMuLV [2] (60 min) and greater than 4.61 Log10 in the data set with XMuLV [2] (120 min). Also, the Virus concentration with XMuLV [1] (setting [3]) is listed as 7.21; with XMuLV [1] (0 min, 1% detergent, BisAb), 7.00; in the data set with XMuLV [1] (0 min, 1% detergent, BisFusion), 7.21; in the data set with XMuLV [1] (setting [4]) it was less than 2.88; in the data set on XMuLV [1] (10 min, 1% detergent, BisAb), less than 2.88; with XMuLV [1] (setting [5]) it was less than 2.88. Further, the Virus concentration in the data set with XMuLV [1] (setting [6]) is recorded as less than 2.88; with XMuLV [1] (60 min, 1% detergent, BisAb) it was less than 2.88; in the data set with XMuLV [1] (setting [7]) it was less than 2.88; with XMuLV [1] (setting [8]) it was less than 2.88; in the data set with XMuLV [1] (<1 min, 1% detergent, BisAb), less than 2.88; in the data set with XMuLV [1] (setting [9]), less than 2.88. In addition, the Virus concentration in the data set with XMuLV [2] (0 min) is recorded as 7.79; in the data set on XMuLV [2] (10 min) it was less than 3.18; in the data set on XMuLV [2] (60 min) it was less than 3.18; in the data set on XMuLV [2] (120 min) it was less than 3.18. The viral inactivation kinetics entry in the data set on XMuLV [2] is “improved, desirable viral inactivation kinetics”. The “Lysate AAV6 Titer” value in the data set with AAV6.2 cell paste is 11.04 Log10 vg/mL. Also, the “cell lysis for AAV purification” value in the data set with AAV6.2 cell paste (in words, compared with Triton X-100) is “as effective for cell lysis for AAV purification as Triton X-100”.
Take `CCCCCCCCCCCCOCCOCCOCCOCCOCCOCCOCCOCCOCCO` [Polidodecanol 600, 3,6,9,12,15,18,21,24,27-nonaoxanonatriacontan-1-ol]: the Log10 reduction value with XMuLV [1] (0 min, 1% detergent, BisAb) is reported as 0 Log10; in the data set with XMuLV [1] (10 min, 1% detergent, BisAb) it was greater than 4.07 Log10; in the data set on XMuLV [1] (60 min, 1% detergent, BisAb) it was greater than 4.07 Log10; in the data set on XMuLV [1] (<1 min, 1% detergent, BisAb) it was greater than 4.03 Log10; in the data set on XMuLV [2] (0 min), 0 Log10; in the data set with XMuLV [2] (10 min), greater than 4.61 Log10. Further, the Log10 reduction value in the data set on XMuLV [2] (60 min), in the data set on XMuLV [2] (120 min) and in the data set with XMuLV [2] (<1 min) was greater than 4.61 Log10 each time. Besides, the Virus concentration is listed as 7.00 in the data set on XMuLV [1] (0 min, 1% detergent, BisAb); less than 2.88 in the data set with XMuLV [1] (10 min, 1% detergent, BisAb); less than 2.88 in the data set on XMuLV [1] (60 min, 1% detergent, BisAb); less than 2.88 in the data set with XMuLV [1] (<1 min, 1% detergent, BisAb); 7.79 in the data set on XMuLV [2] (0 min); less than 3.18 in the data set with XMuLV [2] (10 min). The Virus concentration in the data set with XMuLV [2] (60 min) and with XMuLV [2] (120 min) was less than 3.18 in each case.
For the compound `CC(C)(C)CC(C)(C)c1ccc(O)cc1` [octlyphenol], in the data set with aquatic organisms, the endocrine disruption result was “can behave as endocrine disrupters in aquatic organisms”.
Turning to Triton X-100 [reference compound], in the data set with aquatic organisms, the endocrine disruption entry is “can behave as endocrine disrupters in aquatic organisms”. In addition, the enveloped virus inactivation result in the data set with enveloped virus (diverse set of experimental conditions) is “greater than 4 logs”. Further, in the data set on AAV6.2, the “CaptoAVB Elu Infectivity” value is 9.8 Log10 TCID50/mL and the “CaptoAVB Elu Titer” value came to 11.8 Log10 vg/mL. The “Lysate AAV6 Titer” value with AAV6.2 cell paste turned out to be 11.03 Log10 vg/mL.
Take “polyoxyethylene (20) stearyl ether [Brij S20, reference compound]”: the Log10 reduction value in the data set on XMuLV [2] (0 min) is reported as 0 Log10; in the data set with XMuLV [2] (10 min), 2.90 Log10; with XMuLV [2] (60 min), greater than 4.61 Log10; in the data set on XMuLV [2] (120 min), greater than 4.61 Log10; with XMuLV [2] (<1 min), 0.89 Log10. Besides, the Virus concentration is given as 7.79 with XMuLV [2] (0 min); 4.89 with XMuLV [2] (10 min); less than 3.18 in the data set with XMuLV [2] (60 min); less than 3.18 with XMuLV [2] (120 min); 6.9 in the data set on XMuLV [2] (<1 min). Moreover, the viral inactivation kinetics entry in the data set with XMuLV [2] is “significantly slower”.
As to “polyoxyethylene (23) lauryl ether [Brij 35]”, the “effectiveness for viral inactivation” value in the data set with enveloped virus (finding of Conley et al. (2017)) is on record as “not effective for viral inactivation”.
